For assay [1], the target named is T1, Cannabinoid receptor 1 (Homo sapiens, UniProt P21554). Briefly: Displacement of [3H]rimonabant from human CB1 receptor expressed in HEK293 cells assessed as signal point inhibition at 10 uM by liquid scintillation counting. In kind it is cell-based. In general terms: Loss of bound radioactivity is the signal in a displacement assay; it reports binding, not function.

Assay [2] has as its target T1, Cannabinoid receptor 1. The assay is described as follows: biochemical. The class given is cell-based, HEK293.
In assay [3] the target is Cannabinoid receptor 2 (Homo sapiens, UniProt P34972). Briefly: Displacement of [3H]rimonabant from human CB2 receptor expressed in HEK293 cells by liquid scintillation counting. In kind it is cell-based.
For assay [4], the species on record is Homo sapiens. The assay is described as follows: Selectivity ratio of Ki for human CB2 receptor to Ki for human CB1 receptor.
The target in assay [5] is T1, Cannabinoid receptor 1. The assay is described as follows: Inverse agonist activity at human CB1 receptor by [35S]GTPgammaS incorporation assay relative to rimonabant. The class given is functional. More on the design: concentration or dose not given beside the values. A general note: GTPγS resists hydrolysis and so accumulates on activated G proteins.
Assay [6] deals with T1, Cannabinoid receptor 1. The assay is described as follows: Inverse agonist activity at human CB1 receptor by [35S]GTPgammaS incorporation assay. In kind it is functional.

Bounds are passed on as bounds.

Consider 30 molecules from ChEMBL document CHEMBL1152367, “Discovery and functional evaluation of diverse novel human CB(1) receptor ligands” (Bioorg Med Chem Lett, 2009).

Sequence of Cannabinoid receptor 2 (P34972 whole entry): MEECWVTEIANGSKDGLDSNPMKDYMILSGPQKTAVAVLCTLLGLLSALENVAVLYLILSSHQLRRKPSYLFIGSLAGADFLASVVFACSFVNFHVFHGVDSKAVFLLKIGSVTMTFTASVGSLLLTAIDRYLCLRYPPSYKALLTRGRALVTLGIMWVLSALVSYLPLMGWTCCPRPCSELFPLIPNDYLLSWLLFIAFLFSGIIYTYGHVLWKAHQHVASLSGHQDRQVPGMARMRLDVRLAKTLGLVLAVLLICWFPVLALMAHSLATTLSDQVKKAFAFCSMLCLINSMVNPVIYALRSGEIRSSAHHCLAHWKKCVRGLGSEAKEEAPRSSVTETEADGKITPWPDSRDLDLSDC
T1 sequence (P21554 whole entry): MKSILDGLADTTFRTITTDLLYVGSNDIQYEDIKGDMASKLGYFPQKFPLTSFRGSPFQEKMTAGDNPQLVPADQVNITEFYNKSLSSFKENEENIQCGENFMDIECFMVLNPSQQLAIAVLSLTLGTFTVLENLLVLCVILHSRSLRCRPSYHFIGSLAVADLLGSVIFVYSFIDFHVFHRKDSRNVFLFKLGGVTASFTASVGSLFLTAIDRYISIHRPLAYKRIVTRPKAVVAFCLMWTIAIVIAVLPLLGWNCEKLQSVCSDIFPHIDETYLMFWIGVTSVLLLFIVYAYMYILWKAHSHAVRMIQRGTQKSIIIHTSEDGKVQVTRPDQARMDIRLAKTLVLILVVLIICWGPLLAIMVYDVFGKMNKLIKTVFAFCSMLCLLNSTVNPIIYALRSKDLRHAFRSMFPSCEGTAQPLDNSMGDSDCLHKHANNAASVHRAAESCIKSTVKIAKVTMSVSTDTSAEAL

On to `CS/C(=N\S(=O)(=O)c1ccc(-n2nc(C(F)(F)F)cc2-c2cccs2)cc1)N1CCCC1`, for which the inhibition – broadly, the percentage by which the read-out fell short of the control – in assay [1] was found to be 63%. For the same molecule, in assay [2], the Ki (in general, a measure of affinity in units of concentration, obtained from inhibition or displacement) is 1000 nM.
As for `Cc1ccc(C2c3cccn3-c3ccccc3N2C(=O)CN(C(=O)C2CCCC2)C2CC2)cc1` (configuration not stated), the Ki in assay [3] came out at 10000 nM; in assay [2], 520 nM. Further, in assay [1], the inhibition is 78%. The Ratio Ki in assay [4] is > 19.2. Also, in assay [5], the Activity worked out at 91%. It took 1100 nM to reach a half-maximal effect in assay [6] (EC50).
On to `COc1ccc(-c2cc(C(=O)N3CCN(C(C)=O)CC3)n(-c3cccc(C)c3)n2)c(OC)c1`, for which the inhibition in assay [1] was found to be 77%. The molecule also came in with a Ki in assay [2] of 1940 nM.
On to `COc1ccccc1NC(=O)C(C)Sc1nc(-c2ccc(C)cc2)nc2c1COC(C)(C)C2` (configuration not stated), for which the inhibition constant Ki stood at 10000 nM in assay [3] and 264 nM in assay [2]. The inhibition in assay [1] was determined as 85%. In addition, the Ratio Ki in assay [4] was > 37.9. Besides, the Activity in assay [5] is 91%. Further, in assay [6], the half-maximal effective concentration (EC50) (in general, the concentration at which the effect is half-maximal) turned out to be 1200 nM.
For `CCOC(=O)N1CCN(C(=O)c2cc(-c3ccccc3Cl)nn2-c2ccc(C)cc2C)CC1`, the Ki in assay [3] was determined as 1070 nM; in assay [2], 287 nM. Besides, the inhibition in assay [1] turned out to be 98%. Moreover, the Ratio Ki in assay [4] came out at 3.7. This molecule registered an Activity in assay [5] of 44%. In assay [6], the EC50 is 200 nM.
For `CCCNC(=O)N1CCN(c2nc(Cc3ccccc3)c3c(c2C#N)CC(C)(C)OC3)CC1`, in assay [1], the inhibition was 81%. This molecule showed an inhibition constant Ki in assay [2] of 3950 nM.
Take `CCN(Cc1ccccc1)C(=O)c1oc2ccc(S(=O)(=O)N3CC(C)CC(C)C3)cc2c1C` (configuration not stated): in assay [4], the Ratio Ki amounted to 33.7. In addition, the Activity in assay [5] came out at 95%. This molecule also showed a concentration giving a half-maximal response (EC50) in assay [6] of 300 nM.
As to `CC(C)N(CC(=O)N1c2ccccc2-n2cccc2C1c1ccc(F)cc1)C(=O)CC(C)(C)C` (configuration not stated), the inhibition in assay [1] is 64%. In addition, the Activity in assay [5] is 77%. The same molecule yielded an EC50 in assay [6] of 1100 nM. This molecule came in with an inhibition constant (Ki) in assay [2] of 1030 nM.
On to `Cc1ccc(C(C(=O)Nc2ccc3c(c2)OCCO3)N(C)C(=O)/C=C\c2ccc3c(c2)OCO3)cc1` (configuration not stated), for which the inhibition in assay [1] is 71%. The same molecule came in with a Ki in assay [2] of 1470 nM.
For the molecule `CC(C)(C)c1ccc(C(=O)N2C(C(=O)NCc3ccccn3)CSC2c2cccc(F)c2)cc1` (configuration not stated), in assay [1], the inhibition is 62%. Also, in assay [2], the affinity, expressed as Ki, was 7490 nM.
Taken in the same sequence, the figures for `Cc1ccc(Cc2nsc(N3CCCN(C(=O)Nc4c(C(C)C)cccc4C(C)C)CC3)n2)cc1` were 77% and 1760 nM.
As for `COc1ccc(C2c3cccn3-c3ccccc3N2C(=O)CN(C(=O)NC(C)(C)C)C(C)C)cc1` (configuration not stated), the Ki in assay [3] came out at 4950 nM; in assay [2] it was 308 nM. For the same molecule, the inhibition in assay [1] was found to be 95%. In addition, the Ratio Ki in assay [4] was determined as 16.1. In assay [5], this molecule registered an Activity of 103%. Further, in assay [6], it took 1500 nM to reach a half-maximal effect (EC50).
On to `COc1ccccc1N1CCN(C(=O)C(C)Sc2nc(-c3ccccc3)cc(C(F)(F)F)n2)CC1` (configuration not stated), for which the inhibition in assay [1] is 80%. Moreover, in assay [2], the Ki came to 2310 nM.
The matching figures for `CC(C(=O)N1c2ccccc2C(C)(c2ccc(Cl)cc2)CC1(C)C)N1C(=O)C2CCCCC2C1=O` (configuration not stated): 73% and 520 nM.
In the case of `Cc1cc(C)c(OCC(=O)Nc2sc3c(c2C(=O)NC2CCS(=O)(=O)C2)CCCC3)c(C)c1` (configuration not stated), the results for the inhibition constant Ki in assay [3] and in assay [2] were 58 nM and 325 nM, respectively. For the same molecule, in assay [1], the inhibition stood at 94%. Also, in assay [4], the Ratio Ki was determined as 0.2. In addition, the Activity in assay [5] worked out at 60%. In assay [6], the EC50 stood at 400 nM.
For `Cc1ccc(C(=O)n2cc(/C=N/Nc3nc(N4CCOCC4)nc(N4CCOCC4)n3)c3ccccc32)cc1`, the inhibition in assay [1] worked out at 85%. This molecule also registered a Ki in assay [2] of 2300 nM.
In the case of `CC(C)NC(=O)C(C)Sc1nnc2c3ccccc3n(Cc3ccccc3)c2n1` (configuration not stated), the inhibition in assay [1] worked out at 86%. Further, in assay [2], the Ki amounted to 2270 nM.
`COc1cccc(N2C(C(C)=O)=NN(c3ccc(Cl)cc3)C2c2ccc(N3CCOCC3)cc2)c1` (configuration not stated): the inhibitory constant (Ki) came out at 3920 nM in assay [3] and 227 nM in assay [2]. In assay [1], the inhibition turned out to be 90%. For the same molecule, the Ratio Ki in assay [4] amounted to 17.3. The Activity in assay [5] is 81%. In assay [6], a half-maximal response (EC50) required 600 nM.
Take `CC1CN(c2ncnc(NC(c3ccccc3)c3ccccc3)c2[N+](=O)[O-])CC(C)O1` (configuration not stated): the inhibition in assay [1] was 67%. Moreover, the inhibitory constant (Ki) in assay [2] worked out at 1180 nM.
Taken in the same sequence, the figures for `COc1ccc(C2c3ccsc3CCN2C(=O)CN(C(=O)C2CCCCC2)C(C)C)cc1` (configuration not stated) were 82% and 2590 nM.
With `CC(C)CN(CC(=O)N1CCc2sccc2C1c1ccc(F)cc1)C(=O)c1ccco1` (configuration not stated), the inhibition in assay [1] amounted to 89%. This molecule also returned an Activity in assay [5] of 105%. For the same molecule, the half-maximal effective concentration (EC50) in assay [6] is 4400 nM. This molecule also yielded a Ki in assay [2] of 875 nM.
Consider `COc1ccc(C2C(C(=O)Nc3cccc(C)n3)c3ccccc3C(=O)N2C2CCCCC2)cc1` (configuration not stated), for which, in assay [1], the inhibition is 69%. In addition, affinity in assay [2] was put at a Ki of 2400 nM.
Turning to `CC1CC(C)CN(S(=O)(=O)c2ccc(F)c(C(=O)NC(c3ccccc3)c3ccccc3)c2)C1` (configuration not stated), the Ki in assay [3] is 10000 nM; in assay [2], 611 nM. In addition, the inhibition in assay [1] is 77%. Also, the Ratio Ki in assay [4] is > 16.4. Also, in assay [5], the Activity was 50%. Besides, in assay [6], the midpoint of the response, the EC50, lay at 500 nM.
On to `CCOC(=O)CN1C(c2ccc(F)cc2)Nc2ccc(Br)cc2C1c1ccccc1` (configuration not stated), for which, in assay [1], the inhibition is 77%. In assay [2], this molecule returned a Ki of 273 nM.
Regarding `Cc1cccc(C)c1N(C(=O)c1ccccc1Cl)C(=O)C(c1ccc([N+](=O)[O-])cc1)N1CCOCC1` (configuration not stated), in assay [1], the inhibition came out at 79%. This molecule displayed an inhibition constant (Ki) in assay [2] of 2780 nM.
With `O=C(Nc1ccccc1Oc1ccccc1)c1ccc(S(=O)(=O)N2CCc3ccccc32)cc1`, the values for the Ki in assay [3] and in assay [2] were 10000 nM and 256 nM, respectively. Further, the inhibition in assay [1] worked out at 82%. The Ratio Ki in assay [4] was > 39. The Activity in assay [5] turned out to be 62%. This molecule also yielded an EC50 in assay [6] of 200 nM.
As for `COC(=O)c1c(C)oc(C)c1S(=O)(=O)N1CCN(C2c3ccccc3-c3ccccc32)CC1`, in assay [1], the inhibition stood at 87%. In assay [2], this molecule had a Ki of 1610 nM.
Regarding `O=C(c1ccc(-n2cnnn2)cc1)N(c1ccccc1)C1(C(=O)Nc2ccccc2)CCCCC1`, in assay [1], the inhibition was 71%. The affinity in assay [2], expressed as Ki, was 1050 nM.
As to `Cc1cc(-c2ccccc2)n(Cc2ccccc2)c(=O)c1S(=O)(=O)c1ccccc1`, the inhibition in assay [1] worked out at 73%. For the same molecule, in assay [2], the Ki came out at 2720 nM.
Turning to `CCOC(=O)N1CC=C2C(C1)C1(C(=O)N(Cc3ccccc3)c3ccccc31)C(C#N)=C(N)C2(C#N)C#N` (configuration not stated), in assay [1], the inhibition came to 82%. The molecule further returned a Ki in assay [2] of 1090 nM.
